These results are taken from patent US10716769B2 (GUANGZHOU JTREAT BIOSCI. LTD., priority 2015, dated 2020).

One series concerns the target T1, HIV-1 integrase (Human immunodeficiency virus type 1 group M subtype B, UniProt P04585).
T1 construct: purified HIV-1 integrase is added to donor substrates coated 96-well plate; made in house
Nature of the series: Test of sample inhibition to HIV-1 integrase (ELISA, strand transfer). The series is classed as biochemical. Particulars: for inhibition at 109 µg/mL: read-out: IC50 (HIV-1 IN inhibition), dash. Here is the method: The half-inhibitory concentration IC50 for 3′ excision of the substrate and the strand transfer is in the range of 88.92-10.20 μg/ml, in which the best inhibitory activity of the compound is higher than that of the monomer compound of hydroxybenzoic acid. The mechanism of the HIV-1 integrase is a two-step reaction: 1) 3′ Processing: the integrase binds to the specific sequences of the long terminal repeat region (LTR) of the proviral DNA to form a stable complex, then the endonucleotides of 3′ end of nucleoside is processed, and the GT dinucleotide of the sequence . . . […] Thus, the activity of the integrase inhibitor is embodied in inhibiting the excision of the 3′end of the viral DNA or the strand transfer, and is represented by a half-inhibitory concentration IC50.
In vitro integrase test, 30 synthetic oligonucleotides are used as donor substrates, 20 synthetic oligonucleotides are used as target substrates. Purified HIV-1 integrase is added to donor substrates coated 96-well plate, ELISA reaction is performed, the product of the strand transfer of target DNA is detected, color development is conducted by biotin-labeled alkaline phosphatase system, and the microplate reader is used to measure the OD value.
First, inhibitors of the enzyme may be screened by adding a sample to the reaction system. Before use, the sample is prepared with DMSO to an appropriate concentration, and then is diluted 5 times at 4 dilutions. The sample after dilution is added into the donor substrate coated 96-well plate, and then added to the reaction Buffer containing the genetically engineered target enzyme and the biotin-target substrate, incubated under optimal reaction conditions, and colored by biotin-labeled alkaline phosphatase system, and the OD value for absorbance value at 405 nm is measured.
30 synthetic oligonucleotides are used as donor substrates, 20 synthetic oligonucleotides are used as target substrates, purified HIV-1 integrase is added to donor substrates coated 96-well plate, ELISA reaction is performed, the product of the strand transfer of target DNA is detected, color development is conducted by biotin-labeled alkaline phosphatase system, and the OD value is measured by a microplate reader. The addition of samples to the reaction system can be used to screen inhibitors for the enzyme.
1. HIV-1 IN: it is extracted and saved by Chinese National New Drug Screening Center and Institute of Pharmaceutical Biotechnology under Chinese Academy of Medical Sciences.
2. Sample Treatment: 10 samples A1-A10 dissolved into DMSO prior to use are prepared into suitable concentrations, and then diluted 5 times at 4 dilutions. Donor substrate and target substrate are from Shanghai Biochemical Synthesis.
3. Method for Test: the samples after dilution are added into the donor substrate coated 96-well plate, then added to the reaction Buffer containing the genetically engineered target enzyme and the biotin-target substrate, incubated under optimal reaction conditions, and colored by biotin-labeled alkaline phosphatase system, and the OD value for absorbance value at 405 nm is measured.
A general note: In an ELISA, binding on a coated surface is turned into a signal by an enzyme label.

The subject of another series is HPV 6/11 Virus. Nature of the series: HPV detection via fluorescence quantitative PCR in genital warts tissue homogenate. Particulars: for HPV 6/11 virus detection, in words: 24 hours after addition into the tissue homogenate of genital warts; for HPV 6/11 Virus: genital warts tissue homogenate, 37° C., 24 hours, FQ-PCR. Also noted: species or system human papillomavirus. The source says:
(§1) The aforesaid compounds and/or compositions containing the same are effective in killing and inhibiting HPV type 6/11 and type 16/18, which can be used for the preparation of drugs for preventing and treating viral infection of HPV, preventing and treating genital warts, flat warts, common warts, vaginitis, cervicitis and cervical erosion, cervical cancer, esophageal cancer and other cancers caused by HPV. The present invention observes the effect of active ingredients and products by the detection of the change in the amount of the HPV virus through the real-time quantitative PCR. Such method has been applied in several publications (Youling C A I, et al., Chinese STD/AIDS, 2002, 8: 2,108; Yuansheng W U, Ruijiang F A N, et al., Practical Application of Integrated Chinese and Western Medicine in Clinics, 2003, 3: 2,1).
(§2) The microemulsion obtained in example 1 is used as a test sample and saline for blank control.
(§3) The standard clinical genital warts specimens from a variety of patients after being cut off are washed with saline for removing bloods, and are cut into pieces under aseptic conditions, added with saline in 3 times of their volumes to be uniformly mixed, grinded into homogenate and placed at −40° C. for use.
(§4) Each test sample drug microemulsion and the saline of 50 μl for each are respectively added with 50 μl the genital warts tissue homogenate, and incubated at 37° C. for 24 hours; tests are performed according to the operation procedure provided by the HPV6, 11 and 16, 18 type FQ-PCR diagnostic kits provided by Da'an Gene Diagnostic Center. 0.2 ml of DNA extracted by the conventional alkaline lysis method is put into the thin-walled reaction tube, and simultaneously added with primers, F-PROBE, DNTP, DNA polymerase, buffers and the like in a certain concentration; ABI PRISM™ 7700 fluorescence quantitative PCR amplifier is used to repeat 40 circulations each with 45 s at 93° C. and 120 s at 55° C. after predegeneration at 93° C. for 2 mins; the quantitative results are automatically analyzed by the computer software to calculate the quantitative results of the initial copy number. The data are shown in Table 2 (completed by Da'an Gene Clinical Test Center).

The next series has as its system HPV16/18. The series is described as above. Set-up: species or system human papillomavirus. Particulars: for HPV16/18 virus detection, in words: 24 hours after addition into the tissue homogenate of genital warts; for HPV16/18: genital warts tissue homogenate, 37° C., 24 hours, FQ-PCR.
From the text: as §1, §2, §3, §4

In the next series the test system is Vero cells. Nature of the series: Half toxic concentration in the anti-herpes screening. The class given is cell-based, African green monkey. Here is the method: Vero cells (kidney cells of African green monkey) are used as viral hosts to test the inhibition degree of the samples to cytopathic effects of the Vero cell caused by herpes virus type I and type II. 2. Sample treatment: the sample is dissolved in DMSO at an appropriate concentration before use, and diluted with the culture medium 3 times at a total of 8 dilutions for test. 4.

For another series, the system named is HSV-I, VR733 strain. Kind of series: Inhibition of cytopathic effects of Vero cells caused by herpes virus type I. The class given is cell-based. Particulars: for IC50: read-out: IC50 Against HSV-1. The source says: (§5) Vero cells (kidney cells of African green monkey) are used as viral hosts to test the inhibition degree of the samples to the cytopathic effects of Vero cells caused by herpes virus type I and type II.
(§6) Vero cells (kidney cells of African green monkey) are used as viral hosts to test the inhibition degree of the samples to cytopathic effects of the Vero cell caused by herpes virus type I and type II.
(§7) 1. Virus strains: HSV-I, VR733 strain, and HSV-II, SAV strain, which both are provided by ATCC.
(§8) 2. Sample treatment: the sample is dissolved in DMSO at an appropriate concentration before use, and diluted with the culture medium 3 times at a total of 8 dilutions for test.
(§9) 3. Positive control drug: acyclovir (ACV) produced by the Hubei Ke Yi pharmaceutical factory.

The test system of a further series is HSV-II, SAV strain. Kind of series: Inhibition of cytopathic effects of Vero cells caused by herpes virus type II. The class given is cell-based. The following applies: for IC50: read-out: IC50 Against HSV-II.
From the text: as §5, §6, §7, §8, §9

[1] abbreviates: Vero cells, CPE 48 hours, Reed-Muench.

Converted amounts (≈) assume the structure as drawn. Like-named read-outs stand apart in the source and are kept apart here.

For orientation: IC50 means the midpoint of a concentration-inhibition curve. Consider `O=C(c1ccccc1O)c1cccc(O)c1O` [2,2′3′-trihydroxybenzophenone], for which the IC50 on HIV-1 integrase is 45.4 µM. In the series on HPV 6/11 Virus, the “HPV 6/11 virus detection, in words” value is reported as “can no longer be detected” and the “HPV 6/11 Virus” value was 0 copy/ml. Also, in the series with HPV16/18, the “HPV16/18 virus detection, in words” value is on record as “can no longer be detected” and the HPV16/18 was determined as 0 copy/ml.
Take `O=C(c1ccccc1O)c1ccccc1O` [2,2′-dihydroxybenzophenone]: the “TC50 half toxic concentration” value in the series on Vero cells is 64.15 µg/mL (≈ 299 µM). At HIV-1 integrase, the IC50 was 71.5 µM. Moreover, in the series with HSV-I, VR733 strain (Human alphaherpesvirus 1, Vero, 48 h), the IC50 amounted to 28.7 µg/mL (≈ 134 µM). Moreover, in the series with HSV-II, SAV strain (Human alphaherpesvirus 2, Vero, 48 h), the IC50 stood at 28.7 µg/mL (≈ 134 µM). In addition, in the series on HPV 6/11 Virus, the “HPV 6/11 virus detection, in words” value was “can no longer be detected” and the “HPV 6/11 Virus” value was 0 copy/ml. Moreover, in the series on HPV16/18, the “HPV16/18 virus detection, in words” value is “can no longer be detected” and the HPV16/18 stood at 0 copy/ml.
Take `O=C(c1ccc(O)cc1O)c1cc(O)c(O)c(O)c1O` [2,3,4,2′,4′,5-hexahydroxybenzophenone]: the “IC50 Against HSV-1” value in the series on HSV-I, VR733 strain (setting [1]) worked out at 28.74 µg/mL (≈ 103 µM). The “IC50 Against HSV-II” value in the series with HSV-II, SAV strain (setting [1]) was 28.74 µg/mL (≈ 103 µM).
As a reminder, the inhibition is the share of the control response that was lost under treatment. On to `O=C(O)c1cccc(O)c1O` [2,3-dihydroxybenzoic acid, reference compound], for which, on HIV-1 integrase, the inhibition at 109 µg/mL was less than 50%. In addition, in the series with HPV 6/11 Virus, the “HPV 6/11 virus detection, in words” value is recorded as “have a high concentration” and the “HPV 6/11 Virus” value was 2.30 × 10^4 copy/ml. For the same molecule, in the series on HPV16/18, the “HPV16/18 virus detection, in words” value was “have a high concentration” and the HPV16/18 is reported as 3.20 × 10^3 copy/ml.
`O=C(O)c1cc(O)c(O)c(O)c1` [3,4,5-trihydroxybenzoic acid, reference compound] showed an IC50 against HIV-1 integrase of 591 µM. The “HPV 6/11 Virus” value in the series on HPV 6/11 Virus is 0 copy/ml. The HPV16/18 with HPV16/18 was determined as 0 copy/ml.
For the molecule `O=C(O)c1ccc(O)c(O)c1` [3,4-dihydroxybenzoic acid, reference compound], the inhibition at 109 µg/mL at HIV-1 integrase was less than 50%. In the series on HPV 6/11 Virus, the “HPV 6/11 virus detection, in words” value is “have a high concentration” and the “HPV 6/11 Virus” value was 1.90 × 10^4 copy/ml. In addition, in the series on HPV16/18, the “HPV16/18 virus detection, in words” value is on record as “have a high concentration” and the HPV16/18 is on record as 8.50 × 10^4 copy/ml.
As for `Nc1nc2c(ncn2COCCO)c(=O)[nH]1` [ACV, acyclovir, reference compound], the 50% inhibitory concentration (IC50) in the series with HSV-I, VR733 strain (Human alphaherpesvirus 1, Vero cells, CPE 48 hours, Reed-Muench) was determined as 1.09 µg/mL (≈ 4.85 µM); in the series on HSV-II, SAV strain (Human alphaherpesvirus 2, Vero cells, CPE 48 hours, Reed-Muench), 1.23 µg/mL (≈ 5.46 µM).
